Test results taken from patent US6537990B1, “Combined preparations comprising morpholine anthracyclines and anticancer agent” (priority 1999, dated 2003).
Several values for one entry are separate records, joined by “and”; a condition that tells them apart may be missing. Identical values can stand only once. Counter-ions that a name gives are not always drawn. Like-named read-outs stand apart in the source and are kept apart here.

Key:
[1] = system: tumor cells resistant to anthracyclines and presenting the mdr phenotype; details: in vitro and in vivo; cited from earlier work
[2] = system: tumor cells resistant to L-PAM, cisplatin (cDDP), CTX or Topoisomerase II inhibitors; details: cited from earlier work
[3] = system: disseminated L1210 murine leukemia; experiment: Antileukemic activity against disseminated L1210 murine leukemia; format: in vivo, CD2F1 mice
[4] = in vivo; cited from earlier work

Structure (SMILES)	Activity on tumor cells resistant to anthracyclines and presenting the mdr phenotype [1]	Cross-resistance on resistant tumor cells ([2]; tumor cells resistant to CTX, L-Pam and cDDP)	ILS % (Increased in Life Span) ([3]; cDDP alone, 5.9 mg/Kg/day iv, day +3)	Tox (Number of toxic deaths/number of mice) ([3]; cDDP alone, 5.9 mg/Kg/day iv, day +3, 5.9 mg/kg/day)	ILS % (Increased in Life Span) ([3]; cDDP alone, 7.7 mg/Kg/day iv, day +3)	Tox (Number of toxic deaths/number of mice) ([3]; cDDP alone, 7.7 mg/Kg/day iv, day +3, 7.7 mg/kg/day)	ILS % (Increased in Life Span) ([3]; PNU-152243 alone, 0.05 mg/Kg/day iv, days +1, 2)	Tox (Number of toxic deaths/number of mice) ([3]; PNU-152243 alone, 0.05 mg/Kg/day iv, days +1, 2, HCl, 0.05 mg/kg/day)	Tox (Number of toxic deaths/number of mice) ([3]; PNU-152243 alone, 0.05 mg/Kg/day iv, days +1, 2, listed as PNU 152243, HCl, 0.05 mg/kg/day)	Cross-resistance on resistant tumor cells ([2]; tumor cells resistant to L-PAM or cisplatin (cDDP), or to Topoisomerase II inhibitors (at-multidrug resistant))	Optimal i.v. dose, fold less than that of doxorubicin [4]
CCC1(O)CC(OC2CC(N3CCOCC3)C(O)C(C)O2)c2c(O)c3c(c(O)c2C1O)C(=O)c1cccc(O)c1C3=O (stereo not drawn) [MX2, 3′-deamino-3′(4-morpholinyl)-13-deoxo-10-hydroxy-carminomycin]	active	No cross-resistance									
[NH2][Pt]([NH2])([Cl])[Cl] [cDDP, cisplatin]			33%	without toxicity and 0/10	33%	without toxicity and 0/10					
COc1cccc2c1C(=O)c1c(O)c3c(c(O)c1C2=O)C[C@@](O)(C(=O)CO)C[C@@H]3O[C@H]1C[C@H](N2CCO[C@H](OC)C2)[C@H](O)[C@H](C)O1 [PNU-152243, 3′deamino-3′(2-methoxy-4-morpholinyl)doxorubicin. HCl]	active						50%	0/10	without toxicity	No cross-resistance	at least 80 fold
